One molecule from US4002738A, “Treatment of specified neoplasias” (Abbott Laboratories, priority 1975, dated 1977) can be followed below.

Experiment [1] has as its system tumors induced by 7,12-dimethylbenzanthracene (DMBA). The experiment is described as follows: DMBA-induced tumors in female rats, subcutaneous treatment. The experiment is classed as in vivo, rat. On the procedure:
In a group of 3 female, 50-day old rats, tumors were induced by intragastric feeding of 20 mg of 7,12-dimethylbenzanthracene (DMBA) in 2 ml. of sesame oil. The animals developed tumors within 10-12 weeks. All animals were maintained on normal rations for 100 days following the DMBA administration, at which time treatment with the compound of formula I (R = ethyl; R' = isobutyl) was started at a b.i.d. regimen Monday through Friday with a single dose on Saturday, the compound being subcutaneously administered as a 0.2% (wt/vol.) solution in isotonic saline.
The first animal carrying 4 tumors of volumes of 5.5, 3, 1 and 1 cc. respectively, was given the above regimen with 10 μg per dose.
In the second animal carrying 3 tumors, each dose contained only 5 μg of the drug.
The third animal had developed 5 tumors, measuring 6.5, 3.5, 1.5, 0.5 and 0.5 cc. respectively. After treatment with 2.5 μg. per dose of the test drug, these tumors were reduced to 1.5, 3.0, 0.5, 0.2 and >0.0 cc. in that sequence.

The test system of experiment [2] is spontaneous growth in the right lateral mammary region (adenocarcinoma of the mammary gland). The experiment in a line: Spontaneous mammary tumor in a female rat, subcutaneous treatment. The experiment is classed as in vivo. The method, then: A female rat that had developed a spontaneous growth in the right lateral mammary region was given b.i.d. 10 μg. of the compound of formula I (R'= isobutyl; R = ethyl). […] On day 9, a biopsy was performed and the tumor was identified as adenocarcinoma of the mammary gland. Treatment was stopped after 20 days and the animal was observed periodically. Tumor growth reappeared in the same area with rapid growth observed on day 65 (counted from original treatment beginning). […] Treatment with the above regimen was started again. The tumor regressed again and on day 93, its diameter was 1.2 cm. and its depth was 0.4 cm. […] However, the tumor remained dormant until day 147 (54 days following the last treatment), when significant growing resumed.

Where [3] appears, read: day 66, regrowth after treatment was stopped on day 20, before second treatment.

In the case of `CCNC(=O)[C@@H]1CCCN1C(=O)[C@H](CCCNC(=N)N)NC(=O)[C@H](CC(C)C)NC(=O)[C@@H](CC(C)C)NC(=O)[C@H](Cc1ccc(O)cc1)NC(=O)[C@H](CO)NC(=O)[C@H](Cc1c[nH]c2ccccc12)NC(=O)[C@H](Cc1c[nH]cn1)NC(=O)[C@@H]1CCC(=O)N1`, the tumor volume entry in experiment [1] (first animal, 4 tumors of 5.5, 3, 1 and 1 cc, 10 μg per dose, after 2 weeks, the other two tumors) is recorded as “immeasurable volumes”; in experiment [1] (first animal, 4 tumors of 5.5, 3, 1 and 1 cc, 10 μg per dose, after 2 weeks, two of the tumors), 1 cc; in experiment [1] (second animal, 5 μg per dose, tumor of 3 cc before treatment) it was 11/4; in experiment [1] (second animal, 5 μg per dose, tumor of 4 cc before treatment), 2 cc; in experiment [1] (third animal, 2.5 μg per dose, first tumor of 0.5 cc before treatment), 0.2 cc; in experiment [1] (third animal, 2.5 μg per dose, second tumor of 0.5 cc before treatment), greater than 0.0 cc. In addition, the tumor volume is 0.5 cc in experiment [1] (third animal, 2.5 μg per dose, tumor of 1.5 cc before treatment); 3.0 cc in experiment [1] (third animal, 2.5 μg per dose, tumor of 3.5 cc before treatment); 1.5 cc in experiment [1] (third animal, 2.5 μg per dose, tumor of 6.5 cc before treatment). The effect on tumor entry in experiment [1] (second animal, 3 tumors, 5 μg per dose, one tumor) is “seemingly unaffected”. Besides, the “day until which the tumor remained dormant before significant growing resumed” value in experiment [2] (counted from original treatment beginning, 54 days following the last treatment) came out at 147 days. The tumor diameter in experiment [2] (day 5 of treatment, 10 μg b.i.d. subcutaneous, diameter before treatment 3 cm) is listed as 2 cm; in experiment [2] (day 9 of treatment, 10 μg b.i.d. subcutaneous, diameter before treatment 3 cm), 0.5 cm; in experiment [2] (day 20 of treatment, 10 μg b.i.d. subcutaneous, diameter before treatment 3 cm), “undetectable size”; in experiment [2] (setting [3]) it was 4 cm; in experiment [2] (day 93, second treatment started day 66 (diameter then 4 cm), 10 μg b.i.d. subcutaneous), 1.2 cm. The tumor depth in experiment [2] (setting [3]) is recorded as 2 cm; in experiment [2] (day 93, second treatment started day 66 (depth then 2 cm), 10 μg b.i.d. subcutaneous) it was 0.4 cm.
